From patent US20220370486A1, “COMBINATION TREATMENT OF SYSTEMIC FUNGAL INFECTIONS” (The Board of Trustees of the University of Illinois, priority 2019, published 2022)
Where two headings read alike, the source gives them in different places.

How the values were obtained:
[1] = tested on: A. flavus ATCC 204304; assay: Checkerboard broth microdilution (CLSI); assay type: cell-based; details: isolate ATCC 204304
Description: (§1) Isolates were tested against varying concentrations of amphotericin B and C2′epiAmB (range, 0.06 to 4 mg/L) and combined with fluconazole (range, 0.12 to 128 mg/L) or ketoconazole (range 0.008 to 8 mg/L) or voriconazole (range, 0.004 to 4 mg/L) using a checkerboard grid design following the Clinical and Laboratory Standards Institute (CLSI) broth microdilution method (M23Ed5).

[2] = tested on: A. flavus SC 1085986; assay: Checkerboard broth microdilution (CLSI); assay type: cell-based; details: isolate 1085986
Description: as §1

[3] = tested on: A. fumigatus 1077391; assay: Checkerboard broth microdilution (CLSI); assay type: cell-based; details: isolate 1077391
Description: as §1

[4] = tested on: A. fumigatus ATCC MYA-3626; assay: Checkerboard broth microdilution (CLSI); assay type: cell-based; details: isolate ATCC MYA-3626; for MIC: single agent
Description: as §1

[5] = tested on: C. albicans 967374; assay: Checkerboard broth microdilution (CLSI); assay type: cell-based; details: isolate 967374
Description: as §1

[6] = tested on: C. auris 1081160; assay: Checkerboard broth microdilution (CLSI); assay type: cell-based; details: isolate 1081160; for MIC: single agent
Description: as §1

[7] = tested on: C. glabrata 1046695; assay: Checkerboard broth microdilution (CLSI); assay type: cell-based; details: isolate 1046695; for MIC: single agent
Description: as §1

[8] = tested on: C. krusei 975691; assay: Checkerboard broth microdilution (CLSI); assay type: cell-based; details: isolate 975691
Description: as §1

[9] = tested on: C. krusei ATCC 6258; assay: Checkerboard broth microdilution (CLSI); assay type: cell-based; details: isolate ATCC 6258
Description: as §1

[10] = tested on: C. parapsilosis 1048737; assay: Checkerboard broth microdilution (CLSI); assay type: cell-based; details: isolate 1048737; for MIC: single agent
Description: as §1

[11] = tested on: C. parapsilosis ATCC 22019; assay: Checkerboard broth microdilution (CLSI); assay type: cell-based; details: isolate ATCC 22019
Description: as §1

[12] = tested on: C. tropicalis 1046709; assay: Checkerboard broth microdilution (CLSI); assay type: cell-based; details: isolate 1046709
Description: as §1

[13] = tested on: F. oxysporum SC 1087597; assay: Checkerboard broth microdilution (CLSI); assay type: cell-based; details: isolate 1087597
Description: as §1

[14] = tested on: F. solani SC 1047542; assay: Checkerboard broth microdilution (CLSI); assay type: cell-based; details: isolate 1047542
Description: as §1

[15] = tested on: primary hREC; assay: Toxicity to primary hREC; assay type: cell-based, human
Excerpt: This key discovery opened a path to the rational development of a non-toxic AmB variant. To probe its predicted role in sterol binding, the hydroxyl group was synthetically deleted at the C2′ position on the mycosamine appendage.
In each case, C2′epiAmB is non-toxic to human red blood cells, primary hREC, mice, and rats up to the highest dose tested.

[16] = tested on: Candida and Aspergillus clinical isolates; assay: In vitro antifungal activity against clinical isolates (Evotec); assay type: cell-based; details: many Candida and several Aspergillus strains
Excerpt: (§2) In vitro antifungal activity of C2′ epiAmB was compared with that of AmB against an extensive series of Candida and Aspergillus clinical isolates (FIG. 6A) at Evotec (Oxfordshire, UK). […] C2′epiAmB was also sent to the US national Fungus Testing Laboratory at UT-San Antonio for antifungal testing against an extended panel of especially challenging 40 Aspergillus clinical isolates, including azole-resistant A. fumigatus, A. flavus, and A. terreus (FIG. 6B).

[17] = tested on: 40 Aspergillus clinical isolates, including azole-resistant A. fumigatus, A. flavus, and A. terreus; assay: Antifungal testing, Fungus Testing Laboratory UT-San Antonio; assay type: cell-based
Excerpt: as §2

[18] = tested on: yeast cells; assay: Antifungal activity after ergosterol pre-complexation of the sponge; assay type: cell-based; details: sponge pre-complexed with ergosterol
Excerpt: Anderson, T. M. et al., Nat Chem Biol 2014, 10 (5), 400-6. […] Davis, S. A., et al., Nat Chem Biol 2015, 11 (7), 481-7. To test whether C2′epiAmB primarily kills cells via the same sterol sponge mechanism, the C2′epiAmB sponge was similarly pre-complexed with ergosterol. […] Thus, C2′epiAmB similarly kills yeast primarily via sterol binding, and, by extension, the new compounds targeted in this application are expected to have a similar barrier to fungal resistance that has been observed for the past 50+years with AmB.

[19] = rat, in vivo
[20] = Intravenous toxicity in rats; details: IV, 2, 10, and 17.5 mg/kg

C[C@@H]1[C@H](O)[C@@H](C)/C=C/C=C/C=C/C=C/C=C/C=C/C=C/[C@H](OC2O[C@H](C)[C@@H](O)[C@H](N)[C@H]2O)CC2O[C@](O)(C[C@@H](O)C[C@@H](O)[C@H](O)CC[C@@H](O)C[C@@H](O)CC(=O)O[C@H]1C)C[C@H](O)[C@H]2C(=O)O (stereo partly drawn) [C2′epiAmB, C2′epi amphotericin B]
MIC ([1]; Aspergillus flavus, ATCC204304, single agent): 2 µg/mL
MIC when added 1 log2 unit lower of azoles' MIC ([1]; with ketoconazole): 2 mg/L
MIC when added 1 log2 unit lower of azoles' MIC ([1]; with voriconazole): 1 mg/L
MIC ([2]; Aspergillus flavus, single agent): 4 µg/mL
MIC when added 1 log2 unit lower of azoles' MIC ([2]; with ketoconazole): >4 mg/L
MIC when added 1 log2 unit lower of azoles' MIC ([2]; with voriconazole): >4 mg/L
MIC ([3]; Aspergillus fumigatus, single agent): 4 µg/mL
MIC when added 1 log2 unit lower of azoles' MIC ([3]; with ketoconazole): 0.06 mg/L
MIC when added 1 log2 unit lower of azoles' MIC ([3]; with voriconazole): >4 mg/L
MIC ([4]; Aspergillus fumigatus, read-out: MIC): > 4 µg/mL
MIC [4]: 4 µg/mL
MIC when added 1 log2 unit lower of azoles' MIC ([4]; with ketoconazole): 0.06 mg/L
MIC when added 1 log2 unit lower of azoles' MIC ([4]; with voriconazole): >4 mg/L
MIC ([5]; Candida albicans, single agent, read-out: MIC): 2 µg/mL
MIC when added 1 log2 unit lower of azoles' MIC ([5]; with fluconazole): 2 mg/L
MIC when added 1 log2 unit lower of azoles' MIC ([5]; with ketoconazole): 1 mg/L
MIC when added 1 log2 unit lower of azoles' MIC ([5]; with voriconazole): 1 mg/L
MIC ([6]; Candidozyma auris, read-out: MIC): 2 µg/mL
MIC [6]: 4 µg/mL
MIC when added 1 log2 unit lower of azoles' MIC ([6]; with fluconazole): 0.06 mg/L
MIC when added 1 log2 unit lower of azoles' MIC ([6]; with ketoconazole): 2 mg/L
MIC when added 1 log2 unit lower of azoles' MIC ([6]; with voriconazole): 2 mg/L
MIC ([7]; Nakaseomyces glabratus, read-out: MIC): 1 µg/mL
MIC [7]: 2 µg/mL
MIC when added 1 log2 unit lower of azoles' MIC ([7]; with fluconazole): 2 mg/L
MIC when added 1 log2 unit lower of azoles' MIC ([7]; with ketoconazole): 1 mg/L
MIC when added 1 log2 unit lower of azoles' MIC ([7]; with voriconazole): 1 mg/L
MIC ([8]; Pichia kudriavzevii, single agent, read-out: MIC): 2 µg/mL
MIC when added 1 log2 unit lower of azoles' MIC ([8]; with fluconazole): 2 mg/L
MIC when added 1 log2 unit lower of azoles' MIC ([8]; with ketoconazole): 2 mg/L
MIC when added 1 log2 unit lower of azoles' MIC ([8]; with voriconazole): 2 mg/L
MIC ([9]; Pichia kudriavzevii, ATCC6258, single agent, read-out: MIC): 2 µg/mL
MIC ([9]; single agent): 1 µg/mL
MIC when added 1 log2 unit lower of azoles' MIC ([9]; with fluconazole): 2 mg/L
MIC when added 1 log2 unit lower of azoles' MIC ([9]; with ketoconazole): 1 mg/L
MIC when added 1 log2 unit lower of azoles' MIC ([9]; with voriconazole): 1 mg/L
MIC ([10]; Lodderomyces parapsilosis, read-out: MIC): 1 µg/mL
MIC [10]: 2 µg/mL
MIC when added 1 log2 unit lower of azoles' MIC ([10]; with fluconazole): 1 mg/L
MIC when added 1 log2 unit lower of azoles' MIC ([10]; with ketoconazole): 0.5 mg/L
MIC when added 1 log2 unit lower of azoles' MIC ([10]; with voriconazole): 0.5 mg/L
MIC ([11]; Lodderomyces parapsilosis, ATCC22019, single agent, read-out: MIC): 1 µg/mL
MIC ([11]; single agent): 2 µg/mL
MIC when added 1 log2 unit lower of azoles' MIC ([11]; with fluconazole): 1 mg/L
MIC when added 1 log2 unit lower of azoles' MIC ([11]; with ketoconazole): 0.5 mg/L
MIC when added 1 log2 unit lower of azoles' MIC ([11]; with voriconazole): 1 mg/L
MIC ([12]; Candida tropicalis, single agent): 1 µg/mL
MIC when added 1 log2 unit lower of azoles' MIC ([12]; with fluconazole): 1 mg/L
MIC when added 1 log2 unit lower of azoles' MIC ([12]; with ketoconazole): 1 mg/L
MIC when added 1 log2 unit lower of azoles' MIC ([12]; with voriconazole): 1 mg/L
MIC ([13]; Fusarium oxysporum, single agent): > 4 µg/mL
MIC when added 1 log2 unit lower of azoles' MIC ([13]; with ketoconazole): 0.06 mg/L
MIC when added 1 log2 unit lower of azoles' MIC ([13]; with voriconazole): >4 mg/L
MIC ([14]; Fusarium solani, single agent): > 4 µg/mL
MIC when added 1 log2 unit lower of azoles' MIC ([14]; with ketoconazole): 0.06 mg/L
MIC when added 1 log2 unit lower of azoles' MIC ([14]; with voriconazole): >4 mg/L
toxicity to primary hREC [15]: non-toxic
in vitro antifungal activity [16]: good activity
less potent than AmB, average ([17]; average across all 40 strains): 5.6 fold
less potent than AmB ([17]; range over 40 Aspergillus clinical isolates): 2-16 times
change of potency upon ergosterol pre-complexation [18]: same reduction in potency
toxicity in rats [19]: non-toxic
mortality [20]: no mortality
